Laboratory results as given in patent US6534496B1, “Thermogenic composition and benzazepine thermogenics” (Takeda Chemical Industries, Inc., priority 1997, dated 2003).
Counter-ions that a name gives are not always drawn.

| Compound | melting point |
| --- | --- |
| O=C(CCC1CCN(Cc2cccc(-c3ccccc3)c2)CC1)c1ccc2c(c1)CN(Cc1ccc(F)cc1)CCO2 (as salt: hydrochloride) [Example 99, 1-[4-[(4-Fluorophenyl)methyl]-2,3,4,5-tetrahydro-1,4-benzoxazepin-7-yl]-3-[1-[(3-phenylphenyl)methyl]-4-piperidinyl]-1-propanone Ddihydrochloride] | 187 to 189 °C |
| CCOC(=O)COc1cccc(CN2CCC(CCC(=O)c3ccc4c(c3)CN(Cc3ccc(F)cc3)CCO4)CC2)c1 (as salt: hydrochloride) [Example 103, Ethyl 2-[3-[[4-[3-[4-[(4-fluorophenyl)methyl]-2,3,4,5-tetrahydro-1,4-benzoxazepin-7-yl]-3-oxopropyl]-1-piperidinyl]methyl]phenoxy]ethanoate Dihydrochloride] | 200 to 203 °C |
| CC(C)(C)c1ccc(CN2CCC(CCC(=O)c3ccc4c(c3)CN(Cc3ccc(F)cc3)CCO4)CC2)cc1 (as salt: hydrochloride) [Example 108, 1-[4-[(4-Fluorophenyl)methyl]-2,3,4,5-tetrahydro-4-benzoxazepin-7-yl]-3-[1-[[4-(tert-butyl)phenyl]methyl]-4-piperidinyl]-1-propanone Dihydrochloride] | 240 to 243 °C |
| Cc1ccccc1CN1CCc2ccc(C(=O)CCCC3CCN(Cc4ccccc4C)CC3)cc2CC1 (as salt: hydrochloride) [Example 127, 4-[1-[(2-Methylphenyl)methyl]-4-piperidinyl]-1-[3-[(2-methylphenyl)methyl]-2,3,4,5-tetrahydro-1H-3-benzazepin-7-yl]-1-butanone Dihydrochloride] | 183 to 186 °C |
| Cc1ccccc1CN1CCc2ccc(C(=O)CCCC3CCN(Cc4ccccc4)CC3)cc2CC1 (as salt: hydrochloride) [Example 129, 1-[3-[(2-Methylphenyl)methyl]-2,3,4,5-tetrahydro-1H-3-benzazepin-7-yl]-4-[1-(phenylmethyl)-4-piperidinyl]-1-butanone Dihydrochloride] | 191 to 194 °C |
| Cc1ccccc1CN1CCc2ccc(C(=O)CCCC3CCN(Cc4cccc(Cl)c4)CC3)cc2CC1 (as salt: hydrochloride) [Example 130] | 180 to 183 °C |
| COC(=O)c1cccc(CN2CCC(CCCC(=O)c3ccc4c(c3)CCN(Cc3ccccc3)CC4)CC2)c1 (as salt: hydrochloride) [Example 152, Methyl 3-[[4-[4-[3-(phenylmethyl)-2,3,4,5-tetrahydro,-1H-3-benzazepin-7-yl]-4-oxobutyl]-1-piperidinyl]methyl]benzoate Dihydrochloride] | 194 to 200 °C |
| CCOC(=O)C(C)(C)c1cccc(CN2CCC(CCCC(=O)c3ccc4c(c3)CCN(Cc3ccccc3)CC4)CC2)c1 (as salt: hydrochloride) [Example 153, Ethyl 2-methyl-2-[3-[[4-[4-[3-(phenylmethyl)-2,3,4,5-tetrahydro-1H-3-benzazepin-7-yl]-4-oxobutyl]-1-piperidinyl]methyl]phenyl]propionate Dihydrochloride] | 146 to 148 °C |
| O=C(CCCC1CCN(Cc2cccc([N+](=O)[O-])c2)CC1)c1ccc2c(c1)CCN(Cc1ccccc1)CC2 (as salt: hydrochloride) [Example 154, 4-[1-[(3-Nitrophenyl)methyl]-4-piperidinyl-1-(3-(phenylmethyl)-2,3,4,5-tetrahydro-1H-3-benzazepin-7-yl]-1-butanone Dihydrochloride] | 239 to 244 °C (dec.) |
| COc1cccc(CN2CCC(CCCC(=O)c3ccc4c(c3)CCN(Cc3ccccc3)CC4)CC2)c1 (as salt: hydrochloride) [Example 156, 4-[1-[(3-Methoxyphenyl)methyl]-4-piperidinyl]-1-[3-(phenylmethyl)-2,3,4,5-tetrahydro-1H-3-benzazepin-7-yl]-1-butanone Dihydrochloride] | 215 to 218 °C (dec.) |
| O=C(CCCC1CCN(Cc2ccccc2Cl)CC1)c1ccc2c(c1)CCN(Cc1ccccc1)CC2 (as salt: hydrochloride) [Example 178, 4-[1-[(2-Chlorophenyl)methyl]-4-piperidinyl]-1-[3-(phenylmethyl)-2,3,4,5-tetrahydro-1H-3-benzazepin-7-yl]-1-butanone Dihydrochloride] | 226 to 229 °C (dec.) |
| CC(=O)Nc1cccc(CN2CCC(CCCC(=O)c3ccc4c(c3)CCN(Cc3ccccc3)CC4)CC2)c1 (as salt: hydrochloride) [Example 179, N-[3-[[4-[4-[3-(Phenylmethyl)-2,3,4,5-tetrahydro-1H-3-benzazepin-7-yl]-4-oxobutyl]-1-piperidinyl]methyl]phenyl]acetamide Dihydrochloride] | 179 to 187 °C |
| Cc1ccc(CN2CCc3ccc(C(=O)CCCC4CCN(Cc5ccc(F)cc5)CC4)cc3CC2)cc1 (as salt: hydrochloride) [Example 192, 4-[1-[(4-Fluorophenyl)methyl]-4-piperidinyl]-1-[3-[(4-methylphenyl)methyl]-2,3,4,5-tetrahydro-1H-3-benzazepin-7-yl]-1-butanone Dihydrochloride] | 225 to 228 °C |
| Cc1ccc(CN2CCC(CCCC(=O)c3ccc4c(c3)CCN(Cc3ccccc3[N+](=O)[O-])CC4)CC2)cc1 (as salt: hydrochloride) [Example 198, 4-[1-[(4-Methylphenyl)methyl]-4-piperidinyl]-1-[3-[(2-nitrophenyl)methyl]-2,3,4,5-tetrahydro-1H-3-benzazepin-7-yl]-1-butanone Dihydrochloride] | 164 to 167 °C |
| Cc1ccc(CN2CCC(CCCC(=O)c3ccc4c(c3)CCN(Cc3cccc(Cl)c3)CC4)CC2)cc1 (as salt: hydrochloride) [Example 202, 1-[3-[(3-Chlorophenyl)methyl]-2,3,4,5-tetprahydro-1H-3-benzazepin-7-yl]-4-[1-[(4-methylphenyl)methyl]-4-piperidinyl]-1-butanone Dihydrochloride] | 195 to 198 °C |
| O=C(CCCCC1CCN(Cc2ccccc2)CC1)c1ccc2c(c1)CCN(Cc1ccccc1)CC2 (as salt: hydrochloride) [Example 209, 5-[1-(Phenylmethyl)-4-piperidinyl]-1-[3-(phenylmethyl)-2,3,4,5-tetrahydro-1H-3-benzazepin-7-yl]-1-pentanone Dihydrochloride] | 208 to 210 °C |
| Cc1ccccc1CN1CCC(CCCC(=O)c2ccc3c(c2)CCNCC3)CC1 (as salt: hydrochloride) [Example 236, 4-[1-[(2-Methylphenyl)methyl]-4-piperidinyl]-1-(2,3,4,5-tetrahydro-1H-3-benzazepin-7-yl)-1-butanone Dihydrochloride] | 213 to 216 °C (dec.) |
| CCN(CC)CCN1CCc2ccc(C(=O)CCCC3CCN(Cc4ccccc4C)CC3)cc2CC1 (as salt: hydrochloride) [Example 244, 1-[3-(2-Diethyaminoethyl)-2,3,4,5-tetrahydro-1H-3-benzazepin-7-yl]-4-[1-[(2-methylphenyl)methyl]-4-piperidinyl]-1-butanone Trihydrochloride] | 211 to 213 °C |
| Cc1ccccc1CN1CCc2ccc(C(=O)CCCC3CCN(Cc4ccccc4C(N)=O)CC3)cc2CC1 (as salt: hydrochloride) [Example 254, 2-[[4-[4-[3-[(2-Methylphenyl)methyl]-2,3,4,5-tetrahydro-1H-3-benzazepin-7-yl]-4-oxobutyl]-1-piperidinyl]methyl]benzamide Dihydrochloride] | 201 to 220 °C (dec.) |
| Cc1ccccc1CN1CCc2ccc(C(=O)CCCC3CCNCC3)cc2CC1 (as salt: hydrochloride) [Example 255, 1-[3-(2-Methylphenyl)methyl]-2,3,4,5-tetrahydro-1H-3-benzazepin-7-yl]-4-(4-piperidinyl)-1-butanone Dihydrochloride] | 192 to 203 °C (dec.) |
| Cc1ccccc1CN1CCc2ccc(C(=O)CCCC3CCN(Cc4ccccc4C(=O)N4CCN(C)CC4)CC3)cc2CC1 (as salt: hydrochloride) [Example 313, 4-[1-[[2-[(4-methyl-1-pipiperazinyl)carbonyl]phenyl]methyl]-4-piperidinyl]-1-[3[(2-methylphenyl)methyl]-2,3,4,5-tetrahydro-1H-3-benzazepin-7-yl]-1-butanone Trihydrochloride] | 186 to 193 °C (dec.) |
| Cc1ccccc1CN1CCc2ccc(C(=O)CCCC3CCN(Cc4ccccc4C(=O)N4CCOCC4)CC3)cc2CC1 (as salt: hydrochloride) [Example 314, 1-[3-[(2-Methylphenyl)methyl]-2,3,4,5-tetrahydro-1H-3-benzazepin-7-yl]-4-[1-[[2-(morpholinocarbonyl)phenyl]methyl]-4-piperidinyl]-1-butanone Dihydrochloride] | 168 to 172 °C |
| CC(=O)Nc1ccccc1CN1CCc2ccc(C(=O)CCCC3CCN(Cc4ccccc4Cl)CC3)cc2CC1 (as salt: hydrochloride) [Example 315, N-[2-[[7-[4-[1-[(2-chlorophenyl)methyl]-4-piperidinyl]butanoyl]-2,3,4,5-tetrahydro-1H-3-benzazepin-3-yl]methyl]phenyl]acetamide Dihydrochloride] | 138 to 144 °C |
| Nc1ccccc1CN1CCc2ccc(C(=O)CCCC3CCN(Cc4ccccc4Cl)CC3)cc2CC1 (as salt: hydrochloride) [Example 316, 1-[3-[(2-Aminophenyl)methyl]-2,3,4,5-tetrahydro-1H-3-benzazepin-7-yl]-4-[1-[(2-chlorophenyl)methyl]-4-piperidinyl]-1-butanone Trihydrochloride] | 155 to 164 °C (dec.) |
| O=C(O)c1cccc(CN2CCC(CCCC(=O)c3ccc4c(c3)CCN(Cc3ccccc3)CC4)CC2)c1 (as salt: salt) [Example 158, 3-[[4-[4-[3-(Phenylmethyl)-2,3,4,5-tetrahydro-1H-benzazepin-7-yl]-4-oxobutyl)-1-piperidinyl]methyl]benzoic acid triethylamine Salt] | 150 to 158 °C |
| O=C(CCC1CCNCC1)c1ccc2c(c1)CCN(Cc1ccccc1)CC2 [Example 24, 1-[3-(phenylmethyl)-2,3,4,5-tetrahydro-1H-3-benzazepin-7-yl]-3-(4-piperidinyl)-1-propanone] | 134 to 137 °C |
| CC(=O)N1CCC(CCC(=O)c2ccc3c(c2)CCN3c2ccncc2)CC1 [Example 61, 3-(1-Acetyl-4-piperidinyl)-1-[1-(4-pyridyl)-2,3-dihydroindol-5-yl]-1-propanone] | 157 to 158 °C |
